Assay results: patent publication US20250084091A1, “INHIBITORS OF SARS-COV-2” (The Texas A&M University System, priority 2021, published 2025)
Like-named read-outs stand apart in the source and are kept apart here.

How the values were obtained:
[1] = system: SARS-CoV-2 (strain USA-WA1/2020); experiment: microbe, parasite or virus in culture; format: cell-based
[2] = Uninfected host cell cytotoxicity counter screen; format: cell-based; conditions: human
Protocol: Uninfected host cell cytotoxicity counter screen: HeLa-ACE2 cells were maintained as described for the infection assay and seeded in the assay-ready plates at 400 cells/well. Plates were incubated for 24 hours at 37° C. 5% CO2. To assess cell viability, the Image-iT DEAD green reagent was used according to manufacturer instructions. Cells were fixed with 4% paraformaldehyde, and counterstained with DAPI. Fixed cells are imaged as described above.
Viral replication data analysis: Data from the primary screen and the host cell cytotoxicity screen are normalized to neutral (DMSO) […] inhibitor controls (2.5 μM Remdesivir for antiviral effect and 10 μM puromycin for infected host cell toxicity). For the uninfected host cell cytotoxicity counter-screen 40 μM puromycin is used as the positive control. Concentration response experiments will be tested in triplicate.

[3] = target: SARS-CoV-2 main protease (Mpro) (Severe acute respiratory syndrome coronavirus 2, UniProt P0DTD1); experiment: biochemical
HeLa-ACE2 cells = experiment: cells; format: cell-based; conditions: Table 2, total cell count in infected plates
[4] = Severe acute respiratory syndrome coronavirus 2, Table 2, SARS-CoV-2 infected HeLa-ACE2 cells, read-out: CoV-2 HeLa EC50
[5] = Severe acute respiratory syndrome coronavirus 2, HeLa-ACE2, read-out: CoV-2 HeLa EC50, Table 2, SARS-CoV-2 infected HeLa-ACE2 cells
[6] = Table 2, uninfected cells, 24 hours, read-out: Uninfected HeLa-ACE2 CC50

SMILES	EC50 [1, 4] [nM]	CC50 at 24 h [2] [nM]	IC50 ([3]; Table 2, read-out: Enzyme IC50) [nM]	EC50 (HeLa-ACE2 cells) [nM]	EC50 [1, 5] [nM]	EC50 ([1]; Severe acute respiratory syndrome coronavirus 2, HeLa, read-out: CoV-2 HeLa EC50, Table 3) [nM]	CC50 at 24 h [2, 6] [nM]	IC50 ([3]; Enzyme IC50, Table 2) [nM]	IC50 ([3]; Enzyme IC50, Table 3, select example compounds against mpro) [nM]
O=C(c1cncc(O)c1)N1CCN(C(c2ccccc2)c2ccccc2)CC1 [AA-599, (4-benzhydrylpiperazin-1-yl)(5-hydroxypyridin-3-yl)methanone]	6030	> 39800	1600	> 9610	–	–	–	–	–
O=C(c1cnccc1Cl)N1CCN(C(c2ccccc2)c2ccccc2)CC1 [AA-605, (4-benzhydrylpiperazin-1-yl)(4-chloropyridin-3-yl)methanone]	3030	> 39800	1300	7160	–	–	–	–	–
O=C(c1cc(Br)cnc1Cl)N1CCN(C(c2ccccc2)c2ccccc2)CC1 [AA-606, (4-benzhydrylpiperazin-1-yl)(5-bromo-2-chloropyridin-3-yl)methanone]	–	> 39800	> 10000	> 9610	> 9610	–	–	–	–
Cc1ccncc1C(=O)N1CCN(C(c2ccccc2)c2ccccc2)CC1 [AA-611, (4-benzhydrylpiperazin-1-yl)(4-methylpyridin-3-yl)methanone]	–	> 39800	2500	> 9610	> 9610	–	–	–	–
Cc1cncc(C(=O)N2CCC(N(c3ccccc3)c3ccccc3)CC2)c1 [AA-613, (4-(diphenylamino)piperidin-1-yl)(5-methylpyridin-3-yl)methanone]	–	> 39800	820	> 9610	> 9610	–	–	–	–
Cc1cncc(C(=O)N2CCN(C(c3ccccc3)c3ccc(F)cc3)CC2)c1 (stereo not shown) [AA-620, (4-((4-fluorophenyl)(phenyl)methyl)piperazin-1-yl)(5-methylpyridin-3-yl)methanone]	717	> 39800	260	841	–	–	–	–	–
CC(=O)Nc1cncc(C(=O)N2CCN(C(c3ccccc3)c3ccccc3)CC2)c1 [AA-624, N-(5-(4-benzhydrylpiperazine-1-carbonyl)pyridin-3-yl)acetamide]	2620	> 39800	890	> 9610	–	–	–	–	–
Cc1cncc(C(=O)N2CC3CCC(C2)N3C(c2cccc(F)c2)c2cccc(F)c2)c1 [AA-625, (8-(bis(3-fluorophenyl)methyl)-3,8-diazabicyclo[3.2.1]octan-3-yl)(5-methylpyridin-3-yl)methanone]	–	–	–	85	72	72	26500	33	4
CC(=O)Nc1cccc(C(c2ccccc2)N2C3CCC2CN(C(=O)c2cncc(C)c2)C3)c1 (stereo not shown) [AA-627, N-(3-((3-(5-methylnicotinoyl)-3,8-diazabicyclo[3.2.1]octan-8-yl)(phenyl)methyl)phenyl)acetamide]	–	–	–	> 9610	3000	–	> 39800	48	–
CNC(=O)c1cccc(C(c2ccccc2)N2C3CCC2CN(C(=O)c2cncc(C)c2)C3)c1 (stereo not shown) [AA-630, N-methyl-3-((3-(5-methylnicotinoyl)-3,8-diazabicyclo[3.2.1]octan-8-yl)(phenyl)methyl)benzamide]	–	–	–	8560	7730	–	> 39800	1370	–
CC(=O)Nc1cncc(C(=O)N2CC3CCC(C2)N3C(c2ccccc2)c2ccccc2)c1 [AA-633, N-(5-(8-benzhydryl-3,8-diazabicyclo[3.2.1]octane-3-carbonyl)pyridin-3-yl)acetamide]	–	–	–	2770	1580	–	> 39800	640	–
Cc1cncc(C(=O)N2CCN(C(c3ccccc3)c3ccccc3)CC2=O)c1 [AA-637, 4-benzhydryl-1-(5-methylnicotinoyl)piperazin-2-one]	–	> 39800	90	> 9610	> 9610	–	–	–	–
Cc1cnc(F)c(C(=O)N2CC3CCC(C2)N3C(c2ccccc2)c2ccccc2)c1 [AA-638, (8-benzhydryl-3,8-diazabicyclo[3.2.1]octan-3-yl)(2-fluoro-5-methylpyridin-3-yl)methanone]	–	–	–	711	893	–	> 39800	220	–
O=C(c1cncc2nc[nH]c12)N1CC2CCC(C1)N2C(c1ccccc1)c1ccccc1 [AA-642, (8-benzhydryl-3,8-diazabicyclo[3.2.1]octan-3-yl)(1H-imidazo[4,5-c]pyridin-7-yl)methanone]	–	–	–	3240	1050	–	> 39800	210	–
O=C(c1cncc2cc[nH]c12)N1CC2CCC(C1)N2C(c1ccccc1)c1ccccc1 [AA-643, (8-benzhydryl-3,8-diazabicyclo[3.2.1]octan-3-yl)(1H-pyrrolo[3,2-c]pyridin-7-yl)methanone]	–	–	–	1050	348	–	21500	58	–
Cc1cncc(C(=O)N2CC3CCC(C2)N3C(c2ccccc2)c2ccccc2)n1 [AA-658, (8-benzhydryl-3,8-diazabicyclo[3.2.1]octan-3-yl)-(6-methylpyrazin-2-yl)methanone]	–	–	–	> 9610	1950	–	> 39800	800	–
O=C(c1cccnc1)N1CCN(C(c2ccccc2)c2cccnc2)CC1 (stereo not shown) [MKP-1183, 1-[phenyl(pyridin-3-yl)methyl]-4-(pyridine-3-carbonyl)piperazine]	4340	> 39800	1700	> 9610	–	–	–	–	–
O=C(c1cncc(F)c1)N1CCN(C(c2ccccc2)c2cccnc2)CC1 (stereo not shown) [MKP-1192, 1-(5-fluoropyridine-3-carbonyl)-4-[phenyl(pyridin-3-yl)methyl]piperazine]	4830	> 39800	1930	> 9610	–	–	–	–	–
O=C(c1cncc(Cl)c1)N1CCN(C(c2ccccc2)c2cccnc2)CC1 (stereo not shown) [MKP-1193, 1-(5-chloropyridine-3-carbonyl)-4-[phenyl(pyridin-3-yl)methyl]piperazine]	810	> 39800	450	> 9610	–	–	–	–	–
COc1cncc(C(=O)N2CCN(C(c3ccccc3)c3cccnc3)CC2)c1 (stereo not shown) [MKP-1194, 1-(5-methoxypyridine-3-carbonyl)-4-[phenyl(pyridin-3-yl)methyl]piperazine]	2120	> 39800	1100	> 9610	–	–	–	–	–
O=C(c1cncc(C(F)(F)F)c1)N1CCN(C(c2ccccc2)c2cccnc2)CC1 (stereo not shown) [MKP-1195, 1-[phenyl(pyridin-3-yl)methyl]-4-[5-(trifluoromethyl)pyridine-3-carbonyl]piperazine]	8770	> 39800	2680	> 9610	–	–	–	–	–
COc1cccc(C(c2ccccc2)N2CCN(C(=O)c3cncc(F)c3)CC2)c1 (stereo not shown) [MKP-1204, 1-(5-fluoropyridine-3-carbonyl)-4-[(3-methoxyphenyl)(phenyl)methyl] piperazine]	6660	> 39800	2300	> 9610	–	–	–	–	–
O=C(c1cccnc1)N1CCN(C(c2ccccc2)c2ccsc2)CC1 (stereo not shown) [MKP-1215, 1-[phenyl(thiophen-3-yl)methyl]-4-(pyridine-3-carbonyl)piperazine]	2810	> 39800	4500	> 9610	–	–	–	–	–
O=C(c1cncc(Br)c1)N1CCN(C(c2ccccc2)c2ccsc2)CC1 (stereo not shown) [MKP-1220, 1-(5-bromopyridine-3-carbonyl)-4-[phenyl(thiophen-3-yl)methyl]piperazine]	884	> 39800	250	2640	–	–	–	–	–
O=C(c1cncc(Cl)c1)N1CCN(C(c2ccccc2)c2ccsc2)CC1 (stereo not shown) [MKP-1221, 1-(5-chloropyridine-3-carbonyl)-4-[phenyl(thiophen-3-yl)methyl]piperazine]	831	> 39800	330	556	–	–	–	–	–
Cc1cncc(C(=O)N2CCN(C(c3ccccc3)c3ccsc3)CC2)c1 (stereo not shown) [MKP-1222, 1-(5-methylpyridine-3-carbonyl)-4-[phenyl(thiophen-3-yl)methyl]piperazine]	1400	> 39800	370	1240	–	–	–	–	–
O=C(c1cncc(Cl)c1)N1CCN(C(c2ccccc2)c2cccc(F)c2)CC1 (stereo not shown) [MKP-1227, 1-(5-chloropyridine-3-carbonyl)-4-[(3-fluorophenyl)(phenyl)methyl]piperazine]	457	> 39800	88	614	–	–	–	–	–
N#Cc1cncc(C(=O)N2CCN(C(c3ccccc3)c3ccccc3)CC2)c1 [MKP-1230, 5-[4-(diphenylmethyl)piperazine-1-carbonyl]pyridine-3-carbonitrile]	2800	> 39800	1300	> 9610	–	–	–	–	–
Cc1cncc(C(=O)N2CCN(C(c3ccccc3)c3cccc(C(F)(F)F)c3)CC2)c1 (stereo not shown) [MKP-1276, 1-(5-methylpyridine-3-carbonyl)-4-{phenyl[3-(trifluoromethyl)phenyl]methyl} piperazine]	637	22900	211	3410	–	–	–	–	–
